This passage reports IC50 results from US10703756B2, “Pyrrolo[2,3-D]pyrimidinyl, pyrrolo[2,3-B]pyrazinyl, pyrrolo[2,3-B]pyridinyl acrylamides and epoxides thereof” (Pfizer Inc., priority 2015, dated 2020).

SMILES strings stand for the structures.

Assay [1] deals with T1, JAK3 enzyme (Homo sapiens, UniProt P52333).
T1 sequence (P52333 1-1124): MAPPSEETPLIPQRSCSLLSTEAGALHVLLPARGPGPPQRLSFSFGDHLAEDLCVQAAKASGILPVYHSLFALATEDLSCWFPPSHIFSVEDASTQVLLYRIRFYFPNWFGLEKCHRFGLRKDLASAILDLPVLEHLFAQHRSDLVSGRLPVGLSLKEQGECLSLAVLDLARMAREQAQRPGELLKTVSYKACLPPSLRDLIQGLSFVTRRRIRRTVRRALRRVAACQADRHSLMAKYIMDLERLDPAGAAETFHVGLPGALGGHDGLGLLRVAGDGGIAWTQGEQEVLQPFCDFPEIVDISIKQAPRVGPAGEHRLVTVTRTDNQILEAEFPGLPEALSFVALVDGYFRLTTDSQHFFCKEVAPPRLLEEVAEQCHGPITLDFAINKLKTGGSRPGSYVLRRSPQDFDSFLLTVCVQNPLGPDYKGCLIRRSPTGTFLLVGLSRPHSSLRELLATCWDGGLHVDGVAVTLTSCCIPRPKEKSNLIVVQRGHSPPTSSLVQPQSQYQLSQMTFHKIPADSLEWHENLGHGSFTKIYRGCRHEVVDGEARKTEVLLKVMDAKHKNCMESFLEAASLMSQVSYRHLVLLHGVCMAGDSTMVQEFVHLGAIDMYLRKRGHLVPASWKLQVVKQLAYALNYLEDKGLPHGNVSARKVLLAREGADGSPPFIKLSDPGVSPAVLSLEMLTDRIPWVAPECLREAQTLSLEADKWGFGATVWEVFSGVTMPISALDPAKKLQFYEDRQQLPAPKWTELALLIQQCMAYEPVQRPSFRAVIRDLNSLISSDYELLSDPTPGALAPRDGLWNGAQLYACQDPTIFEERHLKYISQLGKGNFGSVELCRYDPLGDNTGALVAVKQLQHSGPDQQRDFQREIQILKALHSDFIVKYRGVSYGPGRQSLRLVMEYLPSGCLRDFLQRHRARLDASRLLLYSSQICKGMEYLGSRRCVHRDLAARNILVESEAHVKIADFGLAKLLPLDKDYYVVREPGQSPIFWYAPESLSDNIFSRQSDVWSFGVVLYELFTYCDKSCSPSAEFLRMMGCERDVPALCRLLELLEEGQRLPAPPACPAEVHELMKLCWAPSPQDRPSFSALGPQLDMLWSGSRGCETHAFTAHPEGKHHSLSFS
In words: JAK Caliper Enzyme Assay at 4 μM ATP. The class given is biochemical. In short, it runs like this: (§1)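 Read-out: microfluidic mobility-shift separation quantifying substrate peptide versus phosphopeptide. Compounds were tested as 11-point half-log dilutions, top 600 μM in DMSO before transfer. Enzyme level and reaction time were tuned for each prep so conversion stayed at 20%-30%.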

In assay [2] the target is T1, JAK3 enzyme. In words: JAK Caliper Enzyme Assay at 1 mM ATP. The class given is biochemical. The procedure, abridged:
as §1

For assay [3], the system named is IL-15 induced STAT5 phosphorylation in human whole blood lymphocytes. The experiment in a line: HWB IL-15 Induced STAT5 Phosphorylation Assay. The settings on record: Lymphocyte, IL-15 final 50 ng/ml, read-out: HWB_IL15 pSTAT5 IC50. Type of assay: cell-based. The procedure, abridged: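 Heparinised human whole blood preincubated with compound (0.2% DMSO final) 45 min at 37° C, then stimulated with human IL-15 (50 ng/ml final) for 15 min. After lyse/fix and Perm Buffer III permeabilisation, stained overnight at 4° C with AlexaFluor647 anti-phospho-STAT5; read by flow cytometry gated on total lymphocytes.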

Assay [4] deals with IL-15 induced P-STAT5 in human PBMC. In words: PBMC IL-15 Induced P-STAT5. The class given is cell-based. As to conditions: human PBMC, IL-15 final 41 ng/mL; read-out: PBMC IL15_pSTAT5_IC50. The procedure, abridged:
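Flow cytometry gated on total lymphocytes measured STAT5 staining (Alexa Fluor 647 antibody, overnight, 4 °C) in fixed, methanol-permeabilised human PBMC. Cells had received compound for 15 min at 37 °C (0.2% DMSO final), followed by 41 ng/mL final human IL-15 for 15 min.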

For the compound `C=CC(=O)N1CCN(c2cnc3[nH]cc(C(=O)NCCC(F)(F)F)c3n2)C[C@@H]1CC(C)C` [Example 329, 2-[(3S)-4-acryloyl-3-(2-methylpropyl)piperazin-1-yl]-N-(3,3,3-trifluoropropyl)-5H-pyrrolo[2,3-b]pyrazine-7-carboxamide], the IC50 in assay [1] stood at 0.587 nM; in assay [2] it was 60 nM; in assay [3], 6290 nM; in assay [4], 247 nM.

As for `C=CC(=O)N1CCN(c2cnc3[nH]cc(C(=O)NCC(C)(C)C)c3n2)C[C@@H]1CC(C)C` [Example 330, 2-[(3S)-4-acryloyl-3-(2-methylpropyl)piperazin-1-yl]-N-(2,2-dimethylpropyl)-5H-pyrrolo[2,3-b]pyrazine-7-carboxamide], the IC50 was found to be 0.287 nM in assay [1], 45 nM in assay [2], 1970 nM in assay [3] and 122 nM in assay [4].

Take `C=CC(=O)N1CCN(c2cnc3[nH]cc(C(=O)NC4CCCC4)c3n2)CC1(C)C` [Example 334, 2-(4-acryloyl-3,3-dimethylpiperazin-1-yl)-N-cyclopentyl-5H-pyrrolo[2,3-b]pyrazine-7-carboxamide]: the IC50 in assay [1] was determined as 0.703 nM; in assay [2], 93 nM; in assay [3], 3920 nM; in assay [4], 73.6 nM.

Regarding `C=CC(=O)N1CCN(c2cnc3[nH]cc(C(=O)NC[C@H](C)CC(F)(F)F)c3n2)CC1` [Example 336, 2-(4-acryloylpiperazin-1-yl)-N-[(2R)-4,4,4-trifluoro-2-methylbutyl]-5H-pyrrolo[2,3-b]pyrazine-7-carboxamide], the IC50 in assay [1] was 0.24 nM; in assay [2], 26 nM; in assay [3], 373 nM; in assay [4], 107 nM.
